We go through 4 compounds from patent US4727070A, “3-Propenzl cephalosporin isomer separation process and derivative” (Bristol-Myers Company, priority 1985, dated 1988).

For one series, the system named is Gram-negative. Particulars: cited from earlier work.
Series [1] in a line: Solubility in organic solvents (methanol, acetone, methanol-acetone mixture). The format is physicochemical. Particulars: for solubility in methanol-acetone mixture: methanol-acetone containing 20% to 50% by volume methanol, room temperature or below. An excerpt:
In carrying out the foregoing process, it is preferred to use sodium 2-ethylhexanoate as salt-forming reagent, but other reagents such as sodium acetate or the sodium salt of other carboxylic acids may be employed. A reaction inert organic solvent such as a liquid alkanol or ester, is preferably employed in combination with the ketone used as imidazolidinone-forming reagent as solvent. A minimal quantity of water may also be employed to facilitate dissolution. The preferred solvents are mixtures of methanol and acetone. […] Accordingly mixtures of these two solvents are employed to provide the desired differential solubility. Mixtures of methanol and acetone containing from 20% to 50% by volume of methanol are suitable. The antibiotic sodium salt 2,2-dimethylimidazolidinone derivative is insoluble in the methanol-acetone mixture at room temperature or below while the 2,2-dimethylimidazolidinone derivative sodium salt of the (E)-isomer is soluble. This difference in solubility provides a basis for the separation of these, otherwise very similar materials.

Series [2] can be described thus: Aqueous solution stability (250 mg/ml) at room temperature. Particulars: for pH of the aqueous solution: aqueous solution for parenteral injection. The format is physicochemical.
Series [3] is described as follows: Solid state stability on storage (purity of sample). In kind it is physicochemical. Particulars: for remaining at 672 h: 4 Weeks.
A further series in a line: Water solubility. The format is physicochemical.

Regarding `C/C=C\C1=C(C(=O)O)N2C(=O)C(NC(=O)[C@H](N)c3ccc(O)cc3)[C@H]2SC1` (stereo partly drawn) [BMY-28100, 7-[D-2-amino-2-(4-hydroxyphenyl)acetamido]-3-[(Z)-1-propenyl]ceph-3-em-4-carboxylic acid], the “Gram-negative antibacterial activity compared to the (E)-isomer” value in the series on Gram-negative is given as “improved”.
For the compound `C/C=C/C1=C(C(=O)O)N2C(=O)C(N3C(=O)[C@@H](c4ccc(O)cc4)NC3(C)C)C2SC1` (some centres unmarked) [acetonide of BMY-28167], in series [1], the solubility in acetone entry is reported as “substantially insoluble”, the solubility in methanol result is on record as “very soluble” and the “solubility in methanol-acetone mixture” value is “soluble”.
With `C/C=C\C1=C(C(=O)O)N2C(=O)C(N3C(=O)[C@@H](c4ccc(O)cc4)NC3(C)C)[C@H]2SC1` (some centres unmarked) [sodium 7-[2,2-dimethyl-4-(4-hydroxyphenyl)-5-oxo-1-imidazolidinyl]-3-[(Z)-1-propenyl]ceph-3-em-4-carboxylate], the “time to 10% potency loss in aqueous solution” value in series [2] (250 mg/ml aqueous solution, room temperature, pH 7.2) was “approximately 2 hours”. Moreover, the “pH of the aqueous solution” value in series [2] came out at 7.2. In series [3] (1 Day, 100 deg. C.), the fraction remaining at 24 h was 80%. In series [3] (1 Week, 70 deg. C.), the amount remaining at 168 h was 94%. The share remaining at 672 h in series [3] (37 deg. C.) came out at 100%; in series [3] (45 deg. C.) it was 102%; in series [3] (56 deg. C.) it was 98.6%. In addition, the water solubility result in the series “Water solubility” is reported as “several hundred”. The solubility in acetone result in series [1] is “substantially insoluble”. For the same compound, the solubility in methanol entry in series [1] is on record as “very soluble”. Further, the “solubility in methanol-acetone mixture” value in series [1] is on record as “insoluble”.
As to `C/C=C\C1=C(C(=O)[O-])N2C(=O)C(NC(=O)[C@H](N)c3ccc(O)cc3)[C@H]2SC1.[Na+]` (stereo partly drawn) [sodium salt of the antibiotic, sodium 7-[D-2-amino-2-(4-hydroxyphenyl)acetamido]-3-((Z)-1-propenyl)ceph-3-em-4-carboxylate, reference compound], in series [2], the “pH of the aqueous solution” value is recorded as 8.2. The “time to 10% potency loss in aqueous solution” value in series [2] (sodium salt of the antibiotic per se, solution pH 8.2) was 30 min.
